# Laboratory results: patent US8802597B2, “Herbicidal pyrimidines” (E I du Pont de Nemours and Company, priority 2003, dated 2014)
# Like-named read-outs stand apart in the source and are kept apart here.
# Experiments:
# Assay type in all cases: in vivo
# [1] = tested on: Surinam grass (Brachiaria decumbens); assay: Test B pre/postemergence; conditions: Urochloa decumbens; for pest or weed control at 125 g/ha: 125 g ai/ha; for pest or weed control at 62 g/ha: 62 g ai/ha
# How it was run: (§1)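 Visual rating, 0 (no effect) to 100 (complete control) versus controls, taken 13–15 days after treatment in greenhouse. Compounds formulated in non-phytotoxic solvent plus surfactant; pre: sprayed after seeding; post: plants at 1- to 4-leaf stage, 2–18 cm.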
# [2] = tested on: barnyardgrass (Echinochloa crus-galli); assay: Test B pre/postemergence; conditions: Echinochloa crus-galli, scale 0 to 100 (0 no effect, 100 complete control); for pest or weed control at 62 g/ha: 62 g ai/ha; for pest or weed control at 125 g/ha: 125 g ai/ha
# How it was run: as §1
# [3] = tested on: cocklebur (Xanthium strumarium); assay: Test B pre/postemergence; conditions: Xanthium strumarium; for pest or weed control at 62 g/ha: 62 g ai/ha; for pest or weed control at 125 g/ha: 125 g ai/ha
# How it was run: as §1
# corn (Zea mays) = assay: Test B pre/postemergence; conditions: Zea mays
# How it was run: as §1
# [4] = tested on: crabgrass (Digitaria sanguinalis); assay: Test B pre/postemergence; conditions: Digitaria sanguinalis; for pest or weed control at 62 g/ha: 62 g ai/ha; for pest or weed control at 125 g/ha: 125 g ai/ha
# How it was run: as §1
# [5] = tested on: giant foxtail (Setaria faberii); assay: Test B pre/postemergence; conditions: Setaria faberi; for pest or weed control at 125 g/ha: 125 g ai/ha; for pest or weed control at 62 g/ha: 62 g ai/ha
# How it was run: as §1
# [6] = tested on: lambsquarters (Chenopodium album); assay: Test B pre/postemergence; conditions: Chenopodium album; for pest or weed control at 62 g/ha: 62 g ai/ha; for pest or weed control at 125 g/ha: 125 g ai/ha
# How it was run: as §1
# [7] = tested on: morningglory (Ipomoea coccinea); assay: Test B pre/postemergence; conditions: Ipomoea; for pest or weed control at 62 g/ha: 62 g ai/ha; for pest or weed control at 125 g/ha: 125 g ai/ha
# How it was run: as §1
# [8] = tested on: pigweed (Amaranthus retroflexus); assay: Test B pre/postemergence; conditions: Amaranthus retroflexus; for pest or weed control at 62 g/ha: 62 g ai/ha; for pest or weed control at 125 g/ha: 125 g ai/ha
# How it was run: as §1
# [9] = tested on: velvetleaf (Abutilon theophrasti); assay: Test B pre/postemergence; conditions: Abutilon theophrasti; for pest or weed control at 62 g/ha: 62 g ai/ha; for pest or weed control at 125 g/ha: 125 g ai/ha
# How it was run: as §1
# [10] = tested on: wheat (Triticum aestivum); assay: Test B pre/postemergence; conditions: Triticum aestivum, scale 0 to 100 (0 no effect, 100 complete control); for plant injury at 62 g/ha: 62 g ai/ha; for plant injury at 125 g/ha: 125 g ai/ha
# How it was run: as §1
# [11] = tested on: blackgrass (Alopecurus myosuroides); assay: Test B postemergence; conditions: Alopecurus myosuroides, post-emergence, scale 0 to 100 (0 no effect, 100 complete control), read-out: Blackgrass plant response rating
# How it was run: as §1
# wild oat (Avena fatua) = assay: Test B postemergence; conditions: Avena fatua, post-emergence, scale 0 to 100 (0 no effect, 100 complete control), read-out: Oat, Wild plant response rating
# How it was run: as §1
# [12] = tested on: barnyardgrass (Echinochloa crus-galli); assay: Test B flooded paddy test; conditions: Echinochloa crus-galli, Flood, scale 0 to 100, read-out: Plant response rating, Barnyardgrass
# How it was run: (§2)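 Plants were grown to the 2-leaf stage before treatment, then kept in a greenhouse for 13 to 15 days. Injury was rated visually against untreated controls on a 0 to 100 scale, where 0 is no effect and 100 is complete control.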
# [13] = tested on: duck salad (Heteranthera limosa); assay: Test B flooded paddy test; conditions: Heteranthera limosa, Flood, scale 0 to 100, read-out: Plant response rating, Ducksalad
# How it was run: as §2
# rice (Oryza sativa) = assay: Test B flooded paddy test; conditions: Oryza sativa, Flood, scale 0 to 100, read-out: Plant response rating, Rice
# How it was run: as §2
# [14] = tested on: umbrella sedge (Cyperus difformis); assay: Test B flooded paddy test; conditions: Cyperus difformis, Flood, scale 0 to 100, read-out: Plant response rating, Sedge, Umbrella
# How it was run: as §2
# [15] = post-emergence, Postemergence, scale 0 to 100 (0 no effect, 100 complete control), read-out: Surinam Grass plant response rating
# [16] = post-emergence, Postemergence, read-out: Barnyardgrass plant response rating
# [17] = pre-emergence, Preemergence, read-out: Plant response rating, Barnyardgrass
# [18] = post-emergence, Postemergence, scale 0 to 100 (0 no effect, 100 complete control), read-out: Cocklebur plant response rating
# [19] = post-emergence, Postemergence, scale 0 to 100 (0 no effect, 100 complete control), read-out: Crabgrass plant response rating
# [20] = post-emergence, Postemergence, scale 0 to 100 (0 no effect, 100 complete control), read-out: Foxtail, Giant plant response rating
# [21] = post-emergence, Postemergence, scale 0 to 100 (0 no effect, 100 complete control), read-out: Lambsquarters plant response rating
# [22] = post-emergence, Postemergence, scale 0 to 100 (0 no effect, 100 complete control), read-out: Morningglory plant response rating
# [23] = post-emergence, Postemergence, scale 0 to 100 (0 no effect, 100 complete control), read-out: Pigweed plant response rating
# [24] = post-emergence, Postemergence, scale 0 to 100 (0 no effect, 100 complete control), read-out: Velvetleaf plant response rating
# [25] = post-emergence, Postemergence, read-out: Wheat plant response rating
# [26] = pre-emergence, Preemergence, read-out: Plant response rating, Wheat
smiles,measurement,setting,value
"Nc1nc(C2CC2)nc(C(=O)OCc2ccccc2)c1Cl [Compound 78, phenylmethyl 6-amino-5-chloro-2-cyclopropyl-4-pyrimidinecarboxylate]",pest or weed control at 125 g/ha,[1]; [15],80%
same,pest or weed control at 62 g/ha,[1]; [15],60%
same,pest or weed control at 125 g/ha,"[1]; pre-emergence, Preemergence, scale 0 to 100 (0 no effect, 100 complete control), read-out: Plant response rating, Surinam Grass",90%
same,pest or weed control at 62 g/ha,"[1]; pre-emergence, Preemergence, scale 0 to 100, 0 no effect, 100 complete control, read-out: Plant response rating, Surinam Grass",60%
same,pest or weed control at 62 g/ha,[2]; [16],80%
same,pest or weed control at 125 g/ha,[2]; [16],90%
same,pest or weed control at 62 g/ha,[2]; [17],60%
same,pest or weed control at 125 g/ha,[2]; [17],70%
same,pest or weed control at 62 g/ha,[3]; [18],100%
same,pest or weed control at 125 g/ha,[3]; [18],100%
same,pest or weed control at 62 g/ha,"[3]; pre-emergence, Preemergence, scale 0 to 100, 0 no effect, 100 complete control, read-out: Plant response rating, Cocklebur",80%
same,pest or weed control at 125 g/ha,"[3]; pre-emergence, Preemergence, scale 0 to 100 (0 no effect, 100 complete control), read-out: Plant response rating, Cocklebur",100%
same,plant injury at 62 g/ha,"corn (Zea mays); post-emergence, Postemergence, 62 g ai/ha, scale 0 to 100 (0 no effect, 100 complete control), read-out: Corn plant response rating",40%
same,plant injury at 125 g/ha,"corn (Zea mays); post-emergence, Postemergence, 125 g ai/ha, scale 0 to 100 (0 no effect, 100 complete control), read-out: Corn plant response rating",80%
same,"Corn plant response rating (crop injury, 0 = no effect, 100 = complete kill) at 62 g/ha","corn (Zea mays); pre-emergence, Preemergence, 62 g ai/ha, scale 0 to 100, 0 no effect, 100 complete control",30%
same,"Corn plant response rating (crop injury, 0 = no effect, 100 = complete kill) at 125 g/ha","corn (Zea mays); pre-emergence, Preemergence, 125 g ai/ha, scale 0 to 100 (0 no effect, 100 complete control)",70%
same,pest or weed control at 62 g/ha,[4]; [19],60%
same,pest or weed control at 125 g/ha,[4]; [19],70%
same,pest or weed control at 62 g/ha,"[4]; pre-emergence, Preemergence, scale 0 to 100, 0 no effect, 100 complete control, read-out: Plant response rating, Crabgrass",80%
same,pest or weed control at 125 g/ha,"[4]; pre-emergence, Preemergence, scale 0 to 100 (0 no effect, 100 complete control), read-out: Plant response rating, Crabgrass",90%
same,pest or weed control at 125 g/ha,[5]; [20],70%
same,pest or weed control at 62 g/ha,[5]; [20],60%
same,pest or weed control at 125 g/ha,"[5]; pre-emergence, Preemergence, scale 0 to 100 (0 no effect, 100 complete control), read-out: Plant response rating, Foxtail, Giant",70%
same,pest or weed control at 62 g/ha,"[5]; pre-emergence, Preemergence, scale 0 to 100, 0 no effect, 100 complete control, read-out: Plant response rating, Foxtail, Giant",20%
same,pest or weed control at 62 g/ha,[6]; [21],100%
same,pest or weed control at 125 g/ha,[6]; [21],100%
same,pest or weed control at 62 g/ha,"[6]; pre-emergence, Preemergence, scale 0 to 100, 0 no effect, 100 complete control, read-out: Plant response rating, Lambsquarters",90%
same,pest or weed control at 125 g/ha,"[6]; pre-emergence, Preemergence, scale 0 to 100 (0 no effect, 100 complete control), read-out: Plant response rating, Lambsquarters",100%
same,pest or weed control at 62 g/ha,[7]; [22],100%
same,pest or weed control at 125 g/ha,[7]; [22],100%
same,pest or weed control at 62 g/ha,"[7]; pre-emergence, Preemergence, scale 0 to 100, 0 no effect, 100 complete control, read-out: Plant response rating, Morningglory",80%
same,pest or weed control at 125 g/ha,"[7]; pre-emergence, Preemergence, scale 0 to 100 (0 no effect, 100 complete control), read-out: Plant response rating, Morningglory",100%
same,pest or weed control at 62 g/ha,[8]; [23],80%
same,pest or weed control at 125 g/ha,[8]; [23],100%
same,pest or weed control at 62 g/ha,"[8]; pre-emergence, Preemergence, scale 0 to 100, 0 no effect, 100 complete control, read-out: Plant response rating, Pigweed",100%
same,pest or weed control at 125 g/ha,"[8]; pre-emergence, Preemergence, scale 0 to 100 (0 no effect, 100 complete control), read-out: Plant response rating, Pigweed",100%
same,pest or weed control at 62 g/ha,[9]; [24],70%
same,pest or weed control at 125 g/ha,[9]; [24],80%
same,pest or weed control at 62 g/ha,"[9]; pre-emergence, Preemergence, scale 0 to 100, 0 no effect, 100 complete control, read-out: Plant response rating, Velvetleaf",70%
same,pest or weed control at 125 g/ha,"[9]; pre-emergence, Preemergence, scale 0 to 100 (0 no effect, 100 complete control), read-out: Plant response rating, Velvetleaf",90%
same,plant injury at 62 g/ha,[10]; [25],50%
same,plant injury at 125 g/ha,[10]; [25],70%
same,plant injury at 62 g/ha,[10]; [26],30%
same,plant injury at 125 g/ha,[10]; [26],70%
same,pest or weed control at 62 g/ha,[11]; 62 g ai/ha,20%
same,pest or weed control at 125 g/ha,[11]; 125 g ai/ha,40%
same,pest or weed control at 62 g/ha,wild oat (Avena fatua); 62 g ai/ha,50%
same,pest or weed control at 125 g/ha,wild oat (Avena fatua); 125 g ai/ha,70%
same,pest or weed control at 125 g/ha,[12]; 125 g ai/ha,0%
same,pest or weed control at 500 g/ha,[12]; 500 g ai/ha,40%
same,pest or weed control at 125 g/ha,[13]; 125 g ai/ha,20%
same,pest or weed control at 500 g/ha,[13]; 500 g ai/ha,70%
same,plant injury at 125 g/ha,rice (Oryza sativa); 125 g ai/ha,20%
same,plant injury at 500 g/ha,rice (Oryza sativa); 500 g ai/ha,40%
same,pest or weed control at 125 g/ha,[14]; 125 g ai/ha,10%
same,pest or weed control at 500 g/ha,[14]; 500 g ai/ha,50%
